Assay results from US8772237B2, “Compositions and methods for counteracting effects of reactive oxygen species and free radicals” (Ischemix, Inc., priority 1999, dated 2014).
Ends that are not written are not given here.

Tests used:
[1] = test system: transcription factor AP-1; experiment: Electrophoretic mobility shift assay (EMSA) for AP-1 activation in primary rat neurons / cortical cultures; type: cell-based
Method: Nuclear extracts for electrophoretic mobility shift assays (EMSAs) were prepared as described previously (Adams et al., J. Leukocyte Biol., 62: 865-873 (1997)) using 1.0-2.0×10^7 cells per sample. All buffers were freshly supplemented with dithiothreitol (DTT, 0.5 mM), protease inhibitors: PMSF (0.5 mM), chymostatin, peptstatin-A, aprotinin, antipain, leupeptin (each at 1 μg/ml), and phosphatase inhibitors: NaF (10 mM), ZnCl2 (1 mM), sodium orthovanadate (1 mM), and sodium pyrophosphate (5 mM). Aliquots of the final dialyzates were stored at −80° C. and discarded after use.
AP-1 transcription factor activation was assayed using an electrophoretic mobility shift assay (EMSA), as described by Adams et al., J. Leukoc. Biol., 62:865-873 (1997)). Cultures of primary rat neurons (Cornell-Bell et al., Cell Calcium, 12: 185-204 (1991)) were stimulated for 3 hours with various concentrations (0, 1, 10, 100 ng/ml) of peptide CMX-9236. Nuclear extracts prepared as described above were separated by gel electophoresis on non-denaturing gels and subjected to the EMSA procedure. This EMSA used an AP-1 synthetic duplex probe (Angel, P., 1987, Cell 49:729-739) having the sequence 5′-[…] (SEQ ID NO:33) and its antisense copy (complement strand), which were end-labeled with P^32 using polynucleotide kinase and (γ-P^32)-ATP. For the EMSA reaction, the labeled probe (0.5 pmol) was mixed with 3 μg of nuclear extract protein in a solution containing 10 mM Tris-HCl, pH 7.5, 50 mM NaCl, 1 mM EDTA, 1 mM dithiothreitol, 5% glycerol, 0.02% β-mercaptoethanol, and 1 μg of poly-dI/dC (Pharmacia). Reaction mixtures were incubated at 25° C. for 20 minutes to allow complete complex formation by the duplex with its appropriate AP-1 protein. The mixture was then electrophoresed under non-denaturing conditions through 4% polyacrylamide gels in 0.5×TBE buffer (45 mM Trisma base, 45 mM boric acid, 1 mM EDTA). The gels were dried on 3 mm paper. Bands were visualized by autoradiography at −80° C. with one intensifying screen and quantified by laser densitometry. The upregulation of AP-1 and the activation and upregulation process of AP-1 was compared to control cultures.
Primary cortical cell cultures were grown to confluence and used in in vitro cultures for determining the effects of various representative peptide compounds on upregulation of AP-1. […] Extracts were prepared from the nuclei isolated from the primary culture homogenates, purified, and analyzed for the presence of specific transcription factors using the electrophoretic mobility shift assay (EMSA) method. The binding of ^32P-labeled duplex DNA probes specific for activator protein-1 (AP-1) or nuclear factor κB (NF-κB) was analyzed and quantified by autoradiography. After a 3-hour incubation of the cultures with 1 ng/ml of the peptide CMX-9236 there was a 15-fold increase of AP-1 relative to […] control cultures. […] Thus, a small peptide compound that is less than 20 amino acids long can simulate the properties of large growth factors such as NGF and BDNF, which exist as dimers of protein chains with molecular weights of 13,259 and 13,500, respectively.

[2] = test system: superoxide dismutase-1 (SOD-1) mRNA; experiment: RT-PCR upregulation of SOD-1 mRNA in rat primary cortical cell cultures; type: cell-based; settings: 100 ng/ml
Method: The RT-PCR method (see, for example, Innis et al., PCR Protocols: A Guide to Methods and Applications, (Academic Press, San Diego, 1990)) was used to investigate the upregulation of the specific mRNA that codes for the enzyme superoxide dismutase (SOD).
Primary cortical cultures were obtained by growing newborn rat brain cortical cells in Delbecco's modified Eagle medium supplemented with 25 μg/ml of gentamycin and 10% fetal calf serum. The cells were isolated from the E-21 cortex of rat brain, plated at a density of 1×10^5 per ml and grown to confluence within four to five days in an atmosphere containing air and 5% CO2 at 37° C. as described in Cornell-Bell et al., Science, 247: 470-473 (1990) and Cell Calcium, 12: 185-204 (1991). Cultures were grown in 20 ml flasks as a monolayer and then exposed to various concentrations of peptides for studies of the effects of peptides on upregulation of genes for SOD and CAT and on the transmigration of transcription factor AP-1 to cell nuclei.
(§1) Primary cultures of rat brain cortical cells were incubated with 100 ng/ml of peptide compound CMX-9236 for durations of 0 to 48 hours. mRNA was isolated from the cytoplasmic fraction of lysed cells according to standard methods (Angel et al., Cell 49:729-739, 1987). The RNA was incubated according to the RT-PCR protocol with two strands, 20 nucleotides long, one for the sense and one from the antisense strand. The sequences were selected to be unique for superoxide dismutase-1 (SOD-1), and to span one intron segment. […] The sequence of the two probe segments of the oligo dT segments for SOD are as follows: anti-sense strand, […] (SEQ ID NO:29), and sense strand, […] (SEQ ID NO:30). These span a sequence of 208 base pairs (bp) on the primary SOD sequence. The mixture was then treated with reverse transcriptase to obtain the cDNA according to standard PCR methods. The cDNA was then analyzed by electrophoresis and separated according to sequence lengths on a non-denaturing 5% polyacrylamide gel. The electrophoretically separated molecules were treated with ethidium bromide to stain double-stranded DNA fragments. These were visualized by ultraviolet illumination and photographed. The gels were then analyzed by a laser scanning fluorescence detector to quantitate the amount of messenger RNA for the extent of upregulation of SOD message and its time course of synthesis as a function of stimulation by CMX-9236. Similar methods of analysis were used for other peptides.

[3] = test system: middle cerebral artery (MCA) permanent occlusion stroke model; experiment: Permanent MCA 24-hour occlusion stroke model; type: in vivo, Sprague-Dawley rats; settings: Dose 0.05 mg/hr
SOD-1 mRNA = experiment: RT-PCR upregulation of SOD-1 mRNA in rat primary myocyte cultures; type: cell-based; settings: rat primary myocytes, 3-hour incubation
Method: as §1, with “These were visualized by ultraviolet illumination and photographed.” left out, “Similar methods of analysis were used for other peptides.” left out

Sequence: KKDGDGDFAIDAPE [CMX-9236, uncapped peptide]
- fold-increase of AP-1 ([1]; 1 ng/ml, 3-hour incubation): 15 fold
- fold-increase of AP-1 (binding of DNA duplex probe) ([1]; 100 ng/ml, 3 hours): 60 fold
- time until SOD-1 mRNA stimulation returns to control levels [2]: ≤ 24 h
- upregulation of SOD-1 mRNA transcripts ([2]; rat primary cortical cells, 3 hours incubation): 9 fold
- Percent Neurological Rescue [3]: 35 ± 8%
- Percent Rescue (percent decrease in infarct size vs vehicle controls) [3]: 23 ± 7%
- upregulation of SOD mRNA (SOD-1 mRNA; 1 ng/ml): 3 fold
- upregulation of SOD-1 mRNA transcripts (SOD-1 mRNA; 10-100 ng/ml): about 6 fold
